Measurements: US5607926A, “Cephalosporin antibiotics” (Microcide Pharmaceuticals, Inc., priority 1995, dated 1997)
≈ marks a conversion by molar mass, not a printed value. Like-named read-outs stand apart in the source and are kept apart here.

Columns and labels:
E. coli ATCC 25922 = experiment: In vitro antibacterial evaluation, MIC by agar dilution, E. coli ATCC 25922; format: cell-based
Outline: (§1)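 Log-phase isolates were spot-inoculated at about 10^4 cfu per spot onto Mueller-Hinton agar plates containing twofold compound dilutions (highest working concentration 128 μg/mL, lowest ≤0.25 μg/mL, duplicates). After 16-20 h at 35-36 °C, the lowest growth-inhibiting level was taken as MIC, per NCCLS agar dilution.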

S. aureus ATCC 29213 = experiment: In vitro antibacterial evaluation, MIC by agar dilution, S. aureus ATCC 29213; format: cell-based; settings: Staphylococcus aureus, ATCC29213
Outline: as §1

[1] = test system: S. epidermidis ATCC 31432; experiment: In vitro antibacterial evaluation, MIC by agar dilution, S. epidermidis ATCC 31432; format: cell-based
Outline: as §1

[2] = test system: X. maltophilia ATCC 13637; experiment: In vitro antibacterial evaluation, MIC by agar dilution, X. maltophilia ATCC 13637; format: cell-based; settings: Stenotrophomonas maltophilia, ATCC13637
Method: (§2) The compounds of the invention were evaluated against several β-lactamresistant bacteria strains by determining the minimum inhibitory concentration (MIC, μg/ml) of each compound with respect to each strain. The MIC, the lowest concentration of antibiotic which inhibits growth of the test organism, was determined by the agar dilution method.
(§3) To determine the MIC for bacterial isolates, the test compound was incorporated in a series of two-fold dilutions into liquified Mueller-Hinton agar. Upon solidification, a number of different bacterial strains were spot inoculated with a replicating device onto the agar surface. […] The procedures used in these studies have been standardized by the National Committee for Clinical Laboratory Standards (NCCLS), as per the NCCLS publication entitled METHODS FOR DILUTION ANTIMICROBIAL SUSCEPTIBILITY TESTS (1991), which is incorporated herein by reference.
(§4) Aliquots of antimicrobial agents were prepared in phosphate buffered saline (PBS) at pH 7.2. Tween 20 or DMSO was used as a solubilizing vehicle as needed. Standard methods of vortexing, sonicating and gentle heat were used to facilitate solubilizing the test agent. Typically, the concentration of the stock solution was 10× that of the highest drug concentration tested. A 1.28 mg/mL stock solution was used with a subsequent highest working concentration of 128 μg/mL. Serial two-fold dilutions were done through ≤0.25 μg/mL. Each drug level was tested in duplicate. Two-fold drug dilutions were done in sterile 50 mL tubes with a final drug volume of 5 mL. Upon the addition of 45 mL of molten agar, a 10-fold dilution resulted. Two, 25 mL. plates were then poured into 15×150 mm square Petri plates with grids and allowed to harden.
(§5) A control plate with a reference drug, either cefotaxime, vancomycin or imipenem, was used as the positive growth control. Stock concentrations of reference antibiotics were prepared and frozen at -80° C. Upon preparation, the control plates were sealed and stored in the refrigerator for up to 1 week prior to use; however, imipenem control plates had to be prepared just prior to use. All test plates were used within 24 hours of preparation.
(§6) Satisfactory results were obtained where the inoculum contained about 10^4 colony forming units (cfu) ±0.5 logs. Starting with pure cultures of the test isolates on agar plates, a few isolated colonies were transferred to a tube of nutrient broth and allowed to grow 4-6 hours at 35°-36° C. to reach log-phase growth. Dropwise addition of the broth culture to PBS was done to match a 0.5 McFarland turbidity standard equal to 10^8 cfu/mL. This was further diluted ten-fold in PBS to reach a working inoculum concentration of 10^7 cfu/mL. When 1 μL of the working inoculum was applied to the agar surface a concentration of about 10^4 cfu per spot was obtained.
(§7) Disposable sterile 1 μL loops were used to inoculate test plates, with each isolate in a designated grid on the agar plate. An alternate method of inoculation involved the use of a replica plater, a device with 48 steel pins allowing the simultaneous inoculation of multiple isolates. After the spots had dried, the plates were incubated at 35°-36° C. for 16-20 hours. Endpoints were assessed as the minimum inhibitory concentration (MIC) of antimicrobial agent.

[3] = test system: S. aureus Col8A (Meth^S)(lac^-); experiment: In vitro antibacterial evaluation, MIC by agar dilution, S. aureus Col8A; format: cell-based
Outline: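 Log-phase isolates were spot-inoculated at about 10^4 cfu onto Mueller-Hinton agar carrying duplicate two-fold compound levels, 128 μg/mL to ≤0.25 μg/mL, following NCCLS (1991). Plates were read after 16-20 h at 35°-36° C. The lowest growth-inhibiting concentration gave the MIC (μg/ml).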

S. haemolyticus (Meth^R) = experiment: In vitro antibacterial evaluation, MIC by agar dilution, S. haemolyticus; format: cell-based
Outline: as §1

P. aeruginosa ATCC 27853 = experiment: In vitro antibacterial evaluation, MIC by agar dilution, P. aeruginosa ATCC 27853; format: cell-based
Outline: as §1

S. aureus ATCC 25923 = experiment: In vitro antibacterial evaluation, MIC by agar dilution, S. aureus ATCC 25923; format: cell-based
Outline: as §1

[4] = test system: methicillinsusceptible S. aureus strain ATCC 13709; experiment: Challenge strain MIC; format: cell-based; settings: Staphylococcus aureus, ATCC13709, S. aureus ATCC 13709; read-out: Challenge str MIC
Outline: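 MIC was found by agar dilution to NCCLS standards: two-fold compound dilutions from 128 μg/mL through ≤0.25 μg/mL in Mueller-Hinton agar, each level in duplicate. Log-phase inocula of about 10^4 cfu per spot were applied. Plates were incubated 16-20 h at 35°-36° C, and the MIC was the lowest concentration inhibiting growth.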

E. faecalis ATCC 29212 = experiment: In vitro antibacterial evaluation, MIC by agar dilution, E. faecalis ATCC 29212; format: cell-based; settings: E. faecalis ATCC 29212
Outline: as §1

E. faecium ATCC 35667 = experiment: In vitro antibacterial evaluation, MIC by agar dilution, E. faecium ATCC 35667; format: cell-based
Outline: as §1

[5] = test system: methicillinsusceptible S. aureus strain ATCC 13709; experiment: In vivo antibacterial evaluation, murine model for lethal bacteremic peritonitis; parameters: species or system S. aureus in female Swiss-Webster mice; settings: Staphylococcus aureus, ATCC13709, sc, 72 h, two equal SC doses at challenge and 2 hours later, mice, probit, read-out: ED50
Outline: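 Female Swiss-Webster mice received IP an LD100 bacterial titer in 7% hog gastric mucin, then two equal subcutaneous doses (at challenge and 2 h later) of two-fold increments of drug, range 0.01–512 mg/kg. Survival scored at 72 h; PD50 (total mg/kg) by probit, groups of 10.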

[6] = test system: S. aureus 76 (Meth^R)(lac^+); experiment: In vitro antibacterial evaluation, MIC by agar dilution, S. aureus 76; format: cell-based
Outline: as §1

[7] = test system: S. aureus Col (Meth^R)(lac^-); experiment: In vitro antibacterial evaluation, MIC by agar dilution, S. aureus Col; format: cell-based
Method: as §2, §3, §4, §5, §6, §7
The novel agents of this invention are notable for their enhanced activity against S. aureus Col and Enterococci (E. faecium and E. faecalis). […]

[8] = Escherichia coli, ATCC25922, read-out: MIC
[9] = S. aureus ATCC 29213, read-out: MIC
[10] = Staphylococcus epidermidis, ATCC31432, S. epidermidis ATCC 31432, read-out: MIC
[11] = Staphylococcus haemolyticus, read-out: MIC
[12] = Pseudomonas aeruginosa, ATCC27853, read-out: MIC
[13] = Staphylococcus aureus, ATCC25923, S. aureus ATCC 25923, read-out: MIC
[14] = Enterococcus faecalis, ATCC29212, read-out: MIC
[15] = Enterococcus faecium, ATCC35667, read-out: MIC
[16] = Staphylococcus aureus, read-out: MIC
[17] = Staphylococcus epidermidis, ATCC31432
[18] = Staphylococcus aureus, ATCC25923

Compound | MIC (E. coli ATCC 25922; [8]) [µg/mL] | MIC (S. aureus ATCC 29213; [9]) [µg/mL] | MIC [1, 10] [µg/mL] | MIC [2] [µg/mL] | MIC ([3]; Staphylococcus aureus) [µg/mL] | MIC (S. haemolyticus (Meth^R); [11]) [µg/mL] | MIC (P. aeruginosa ATCC 27853; [12]) [µg/mL] | MIC (S. aureus ATCC 25923; [13]) [µg/mL] | MIC (E. faecalis ATCC 29212; [14]) [µg/mL] | MIC (E. faecium ATCC 35667; [15]) [µg/mL] | MIC [6, 16] [µg/mL] | other results
CO/N=C(\C(=O)N[C@@H]1C(=O)N2C(C(=O)O)=C(COC(C)=O)CS[C@H]12)c1csc(N)n1 [Cefotaxime, (7R)-3-Acetoxymethyl-7-[(Z)-2-(aminothiazol-4-yl)-2-(methoxyimino)acetamido]-3-cephem-4-carboxylic acid, reference compound] | < 1 | 2 (≈ 4.39 µM) | 2 (≈ 4.39 µM) | > 32 | 2 (≈ 4.39 µM) | > 32 | 8 to 16 (≈ 17.6 to 35.1 µM) | < 1 | > 32 | > 32 |  | MIC [4]: 2 µg/mL (≈ 4.39 µM); ED50 [5]: 7.47 mg/kg
O=C(Cc1ccccc1)N[C@@H]1C(=O)N2C(C(=O)O)=C(Sc3ccccc3Br)CS[C@H]12 [Cmpd 4, (7R)-7-[(Phenylacetyl)amino]-3-(o-bromophenylthio)-3-cephem-4-carboxylic acid] | > 32 | 0.125 (≈ 0.247 µM) | < 0.06 | > 32 | < 0.06 | 16 (≈ 31.7 µM) | > 32 | < 0.06 | 4 (≈ 7.91 µM) | 2 (≈ 3.96 µM) | 4 (≈ 7.91 µM) | 
O=C(Cc1ccccc1)N[C@@H]1C(=O)N2C(C(=O)O)=C(Sc3ccc(Br)cc3)CS[C@H]12 [Cmpd 5, (7R)-7-[(Phenylacetyl)amino]-3-(p-bromophenylthio)-3-cephem-4-carboxylic acid] | > 32 | 0.03 (≈ 0.0594 µM) | < 0.015 | > 32 | 0.03 (≈ 0.0594 µM) | 16 (≈ 31.7 µM) | > 32 | < 0.015 | 2 (≈ 3.96 µM) | 4 (≈ 7.91 µM) | 16 (≈ 31.7 µM) | 
O=C(Cc1ccccc1)N[C@@H]1C(=O)N2C(C(=O)O)=C(Sc3ccccc3I)CS[C@H]12 [Cmpd 6, (7R)-7-[(Phenylacetyl)amino]-3-(o-iodophenylthio)-3-cephem-4-carboxylic acid] | > 32 |  |  | > 32 | < 0.015 | 4 (≈ 7.24 µM) | > 32 |  | 0.5 (≈ 0.905 µM) | 0.5 (≈ 0.905 µM) | 1 (≈ 1.81 µM) | MIC (S. aureus ATCC 29213): < 0.015 µg/mL; MIC [1, 17]: < 0.015 µg/mL; MIC (S. aureus ATCC 25923; [18]): < 0.015 µg/mL; activity against S. aureus Col, S. aureus Col 8A and Enterococci ([7]; S. aureus Col, S. aureus Col 8A, Enterococci): broad activity against both S. aureus Col and S. aureus Col 8A, as well as Enterococci
O=C(Cc1ccccc1)N[C@@H]1C(=O)N2C(C(=O)O)=C(Sc3ccc(-c4ccccc4)cc3Br)CS[C@H]12 [Cmpd 11, (7R)-7-[(Phenylacetyl)amino]-3-(2-bromo-4-biphenylthio)-3-cephem-4-carboxylic acid] | > 32 | 0.125 (≈ 0.215 µM) | 0.03 (≈ 0.0516 µM) | > 32 | 0.06 (≈ 0.103 µM) | 4 to 8 (≈ 6.88 to 13.8 µM) | > 32 | < 0.015 | 2 (≈ 3.44 µM) | 4 (≈ 6.88 µM) | 4 (≈ 6.88 µM) | 
O=C(Cc1ccccc1)N[C@@H]1C(=O)N2C(C(=O)O)=C(Sc3ccc(-c4ccccc4)cc3F)CS[C@H]12 [Cmpd 13, (7R)-7-[(Phenylacetyl)amino]-3-(2-fluoro-4-biphenylthio)-3-cephem-4-carboxylic acid] | > 32 | 0.06 (≈ 0.115 µM) | 0.03 (≈ 0.0576 µM) | > 32 | 0.06 (≈ 0.115 µM) | 16 (≈ 30.7 µM) | > 32 | < 0.015 | 2 (≈ 3.84 µM) | 4 (≈ 7.68 µM) | 16 (≈ 30.7 µM) | 
O=C(Cc1ccccc1)N[C@@H]1C(=O)N2C(C(=O)O)=C(Sc3ccc(Br)cc3-c3ccccc3)CS[C@H]12 [Cmpd 14, (7R)-7-[(Phenylacetyl)amino]-3-(4-bromo-2-biphenylthio)-3-cephem-4-carboxylic acid] | > 32 |  | 0.06 (≈ 0.103 µM) | > 32 | 0.25 (≈ 0.43 µM) | 8 (≈ 13.8 µM) | > 32 | 0.06 (≈ 0.103 µM) | 2 (≈ 3.44 µM) | 1 (≈ 1.72 µM) | 4 (≈ 6.88 µM) | MIC (S. aureus ATCC 29213): 0.25 µg/mL (≈ 0.43 µM)
O=C(Cc1ccccc1)N[C@@H]1C(=O)N2C(C(=O)O)=C(Sc3ccccc3Cl)CS[C@H]12 [Cmpd 15, (7R)-7-[(Phenylacetyl)amino]-3-(o-chlorophenylthio)-3-cephem-4-carboxylic acid] | > 32 | 0.06 (≈ 0.13 µM) | 0.03 (≈ 0.0651 µM) | > 32 | 0.06 (≈ 0.13 µM) | 16 (≈ 34.7 µM) | > 32 | 0.03 (≈ 0.0651 µM) | 2 (≈ 4.34 µM) | 2 (≈ 4.34 µM) | 8 (≈ 17.4 µM) | 
N=C(N)SCc1ccc(SC2=C(C(=O)O)N3C(=O)[C@@H](NC(=O)Cc4ccccc4)[C@H]3SC2)c(I)c1 [Cmpd 58, (7R)-7-[(Phenylacetyl)amino]-3-(4-isothiouroniummethyl-2-iodophenylthio)-3-cephem-4-carboxylic acid] | 32 (≈ 50 µM) |  |  |  | < 0.25 | 4 (≈ 6.24 µM) | > 32 |  | 1 (≈ 1.56 µM) | 0.5 (≈ 0.781 µM) | 4 (≈ 6.24 µM) | MIC [1, 17]: < 0.25 µg/mL; MIC (S. aureus ATCC 25923; [18]): < 0.25 µg/mL; MIC ([7]; Staphylococcus aureus): < 0.25 µg/mL
(7R)-7-[(Phenylacetyl)amino]-3-(2,3-dihydro-2,2-dimethylbenzofuran-7-yl)-3-cephem-4-carboxylic acid [Cmpd 55] |  |  |  |  |  |  |  |  |  |  |  | MIC (E. coli ATCC 25922): > 32 µg/mL; MIC ([1]; S. epidermidis ATCC 31432): < 0.25 µg/mL; MIC ([3]; S. aureus Col8A (Meth^S)(lac^-), lacks PBP2a): < 0.25 µg/mL; MIC (S. haemolyticus (Meth^R)): 16 µg/mL; MIC (P. aeruginosa ATCC 27853): > 32 µg/mL; MIC (S. aureus ATCC 25923; S. aureus ATCC 25923): < 0.25 µg/mL; MIC (E. faecalis ATCC 29212): 16 µg/mL; MIC (E. faecium ATCC 35667): 8 µg/mL; MIC [6]: 16 µg/mL; MIC ([7]; S. aureus Col (Meth^R)(lac^-), high-level PBP2a producer): 4 µg/mL
